Where “and” joins values, the source holds several entries; their conditions need not be identical. Equal values may be shown once. Read-outs that look alike come from different tables or passages of the source.
Key:
[1] = tested on: HIV-1 pseudovirus bearing EnvJR-FL S375N; test: organism not typed; assay type: cell-based; conditions: for Relative infectivity (%): JRFL S375N
[2] = tested on: HIV-1 pseudovirus bearing EnvJR-FL S375M; test: organism not typed; assay type: cell-based
[3] = tested on: HIV-1 pseudovirus bearing EnvJR-FL S375Y; test: organism not typed; assay type: cell-based; conditions: for Relative infectivity (%): JRFL S375Y
[4] = tested on: HIV-1 pseudovirus bearing CRF01_AE 92TH023 Env WT; test: organism not typed; assay type: cell-based; conditions: for Relative infectivity (%): 92TH023 WT
[5] = tested on: HIV-1 pseudovirus bearing CRF01_AE 92TH023 Env LMHS; test: organism not typed; assay type: cell-based; conditions: for Relative infectivity (%): 92TH023 LMHS
[6] = tested on: HIV-1 pseudovirus bearing CRF01_AE 92TH023 Env LMHT; test: organism not typed; assay type: cell-based; conditions: for Relative infectivity (%): 92TH023 LMHT
[7] = tested on: HIV-1 pseudovirus bearing clade B YU2 Env WT; test: organism not typed; assay type: cell-based; conditions: for Relative infectivity (%): YU2 WT
[8] = tested on: HIV-1 pseudovirus bearing clade B YU2 Env S375H; test: organism not typed; assay type: cell-based; conditions: for Relative infectivity (%): YU2 S375H
[9] = tested on: HIV-1 pseudovirus bearing clade B YU2 Env LM+ST; test: organism not typed; assay type: cell-based; conditions: for Relative infectivity (%): YU2 LM+ST
[10] = tested on: HIV-1 pseudovirus bearing clade B YU2 Env LM+SH; test: organism not typed; assay type: cell-based; conditions: for Relative infectivity (%): YU2 LM+SH
[11] = tested on: HIV-1 pseudovirus bearing clade B YU2 Env Y61H; assay type: cell-based
[12] = tested on: HIV-1 pseudovirus bearing clade B YU2 Env H105Q/I108V; assay type: cell-based
[13] = tested on: HIV-1 pseudovirus bearing clade B YU2 Env D474N/M475I/R476K; assay type: cell-based
[14] = tested on: HIV-1JR-FL Env S375N on HEK293T cells; assay type: binding; conditions: JRFL S375N; temsavir 10 µM; listed as TMR
[15] = tested on: HIV-1JR-FL Env S375M on HEK293T cells; assay type: binding; conditions: JRFL S375M; temsavir 10 µM; listed as TMR
[16] = tested on: HIV-1JR-FL Env S375Y on HEK293T cells; assay type: binding; conditions: JRFL S375Y; temsavir 10 µM; listed as TMR
[17] = tested on: CRF01_AE 92TH023 Env LM on HEK293T cells; assay type: binding; conditions: 92TH023 LM; temsavir 10 µM; listed as TMR
[18] = tested on: CRF01_AE CM244 Env LM on HEK293T cells; assay type: binding; conditions: temsavir 10 µM, listed as TMR
[19] = biological target: T1, clade B YU2 Env WT on HEK293T cells (Human immunodeficiency virus type 1 group M subtype B, UniProt P35961); assay type: binding; conditions: temsavir 10 µM, listed as TMR
T1 construct: expressed in transfected cells; host or cells: HEK293T (pSVIIIenv co-transfected with a Tat expressor)

[20] = tested on: clade B YU2 Env LMSH on HEK293T cells; assay type: binding; conditions: temsavir 10 µM, listed as TMR
[21] = tested on: panel of 208 HIV-1 Envs from different clades; conditions: cited from earlier work; for IC50: read-out: Neutralization IC50
CRF01_AE strains = tested on: CRF01_AE strains; parameters: method as in PMID 30604750; conditions: CRF01_AE strains; cited from earlier work
HIV-1 Env with Ile475 = tested on: HIV-1 Env with Ile475; parameters: method as in PMID 28825711; conditions: Ile475 substitution; cited from earlier work

T1 sequence (P35961 32-843): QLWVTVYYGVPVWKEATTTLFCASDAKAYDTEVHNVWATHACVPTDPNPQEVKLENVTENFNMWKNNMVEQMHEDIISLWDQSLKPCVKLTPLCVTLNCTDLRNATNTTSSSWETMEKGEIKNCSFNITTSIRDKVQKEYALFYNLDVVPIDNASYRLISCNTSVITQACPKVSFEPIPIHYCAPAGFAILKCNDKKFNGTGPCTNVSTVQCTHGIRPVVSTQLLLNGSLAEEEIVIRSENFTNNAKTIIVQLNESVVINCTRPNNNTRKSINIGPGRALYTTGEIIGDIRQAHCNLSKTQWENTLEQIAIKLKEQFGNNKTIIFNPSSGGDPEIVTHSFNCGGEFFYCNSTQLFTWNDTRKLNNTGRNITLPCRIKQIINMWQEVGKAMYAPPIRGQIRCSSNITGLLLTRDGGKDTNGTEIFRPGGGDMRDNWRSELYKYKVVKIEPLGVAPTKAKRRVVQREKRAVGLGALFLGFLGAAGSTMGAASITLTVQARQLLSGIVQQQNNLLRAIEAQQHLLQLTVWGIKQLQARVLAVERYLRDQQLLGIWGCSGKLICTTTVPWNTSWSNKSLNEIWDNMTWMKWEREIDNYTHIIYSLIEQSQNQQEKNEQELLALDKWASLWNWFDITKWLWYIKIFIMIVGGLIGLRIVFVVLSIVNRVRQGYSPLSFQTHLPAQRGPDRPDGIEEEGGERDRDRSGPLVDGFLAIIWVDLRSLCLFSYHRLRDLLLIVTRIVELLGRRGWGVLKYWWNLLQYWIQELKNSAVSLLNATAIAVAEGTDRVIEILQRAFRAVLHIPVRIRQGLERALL

COc1cnc(-n2cnc(C)n2)c2[nH]cc(C(=O)C(=O)N3CCN(C(=O)c4ccccc4)CC3)c12 [Temsavir, temsavir]
IC50 ([1]; Cf2Th-CD4/CCR5): 0.00122 µM | Relative infectivity (%) ([1]; Temsavir 0.1 nM): 85.6384% and 86.7177% and 89.7623% | Relative infectivity (%) ([1]; Temsavir 0.5 nM): 73.4943% and 55.2266% and 75.8961% | Relative infectivity (%) ([1]; Temsavir 25 nM): 4.928% and 3.547% and 2.352% and 8.953% | Relative infectivity (%) ([1]; Temsavir 100 nM): 2.171% and 1.397% and 0.7541% and 3.487% | IC50 ([2]; Cf2Th-CD4/CCR5): 0.0647 µM | Relative infectivity (%) ([2]; JRFL S375M, Temsavir 0.1 nM): 98.6007% and 143.038% and 92.762% | IC50 ([3]; Cf2Th-CD4/CCR5): > 0.1 µM | Relative infectivity (%) ([3]; Temsavir 0.1 nM): 95.0549% and 100.21% and 92.5783% | Relative infectivity (%) ([3]; Temsavir 0.5 nM): 93.6966% and 92.3523% and 97.9897% | Relative infectivity (%) ([3]; Temsavir 1 nM): 103.494% and 95.9187% and 99.1671% | Relative infectivity (%) ([3]; Temsavir 5 nM): 82.1418% and 84.655% and 82.6307% | Relative infectivity (%) ([4]; Temsavir 1 nM): 89.8645% and 102.181% and 86.0322% | Relative infectivity (%) ([4]; Temsavir 5 nM): 77.4465% and 120.721% and 86.7772% | Relative infectivity (%) ([4]; Temsavir 10 nM): 69.308% and 86.3374% and 95.4665% | Relative infectivity (%) ([4]; Temsavir 50 nM): 75.3192% and 101.13% and 84.1355% | IC50 ([4]; Cf2Th-CD4/CCR5): > 0.05 µM | Relative infectivity (%) ([5]; Temsavir 1 nM): 49.3528% and 37.816% and 43.3804% | Relative infectivity (%) ([5]; Temsavir 5 nM): 29.4428% and 33.6115% and 29.1035% | Relative infectivity (%) ([5]; Temsavir 10 nM): 21.0612% and 17.7261% and 12.1457% | Relative infectivity (%) ([5]; Temsavir 50 nM): 7.315% and 6.366% and 6.4059% | IC50 ([5]; Cf2Th-CD4/CCR5): 0.00089 µM | Relative infectivity (%) ([6]; Temsavir 1 nM): 42.8978% and 67.1593% and 55.5357% | Relative infectivity (%) ([6]; Temsavir 5 nM): 44.0227% and 46.691% and 23.9805% | Relative infectivity (%) ([6]; Temsavir 50 nM): 14.3245% and 26.4308% and 14.3408% | IC50 ([6]; Cf2Th-CD4/CCR5): 0.00131 µM | IC50 ([7]; Cf2Th-CD4/CCR5): 0.00068 µM | Relative infectivity (%) ([7]; Temsavir 1 nM, Fig 2f): 27.4498% and 23.3742% and 28.1647% | Relative infectivity (%) ([7]; Temsavir 2 nM, Fig S1): 66.79% and 41.21% and 35.57% | Relative infectivity (%) ([7]; Temsavir 5 nM, Fig 2f): 1.267% and 2.642% and 1.583% | Relative infectivity (%) ([7]; Temsavir 5 nM, Fig S1): 6.29% and 2.61% and 2.85% | Relative infectivity (%) ([7]; Temsavir 10 nM, Fig 2f): 0.2419% and 0.2962% and 0.3923% | Relative infectivity (%) ([7]; Temsavir 10 nM, Fig S1): 2.59% and 2.79% and 2.69% | Relative infectivity (%) ([7]; Temsavir 50 nM, Fig 2f): 0.2461% and 0.2675% and 0.3334% | Relative infectivity (%) ([7]; Temsavir 50 nM, Fig S1): 2.66% and 2.72% and 2.93% | Relative infectivity (%) ([7]; Temsavir 100 nM, Fig 2f): 0.2542% and 0.2474% and 0.3435% | Relative infectivity (%) ([7]; Temsavir 100 nM, Fig S1): 2.55% and 3.03% and 2.93% | IC50 ([8]; Cf2Th-CD4/CCR5): 0.0229 µM | Relative infectivity (%) ([8]; Temsavir 1 nM): 63.2919% and 87.0597% and 84.5852% | Relative infectivity (%) ([8]; Temsavir 5 nM): 57.7086% and 71.798% and 64.2482% | Relative infectivity (%) ([8]; Temsavir 10 nM): 66.6494% and 65.3275% and 50.1024% | Relative infectivity (%) ([8]; Temsavir 50 nM): 26.1516% and 30.7973% and 25.917% | Relative infectivity (%) ([8]; Temsavir 100 nM): 13.7111% and 12.275% and 13.4865% | IC50 ([9]; Cf2Th-CD4/CCR5): 0.0321 µM | Relative infectivity (%) ([9]; Temsavir 1 nM): 95.2565% and 91.9655% and 79.6279% | Relative infectivity (%) ([9]; Temsavir 5 nM): 83.0048% and 82.0339% and 77.855% | Relative infectivity (%) ([9]; Temsavir 10 nM): 75.1553% and 73.7876% and 56.2664% | Relative infectivity (%) ([9]; Temsavir 50 nM): 36.2326% and 38.0343% and 31.1158% | Relative infectivity (%) ([9]; Temsavir 100 nM): 20.7287% and 13.4951% and 13.1747% | IC50 ([10]; Cf2Th-CD4/CCR5): > 0.1 µM | Relative infectivity (%) ([10]; Temsavir 1 nM): 101.627% and 98.3187% and 88.9144% | Relative infectivity (%) ([10]; Temsavir 5 nM): 105.436% and 97.7235% and 87.2207% | Relative infectivity (%) ([10]; Temsavir 10 nM): 114.432% and 105.33% and 87.5665% | Relative infectivity (%) ([10]; Temsavir 50 nM): 115.171% and 108.587% and 70.9415% | Relative infectivity (%) ([10]; Temsavir 100 nM): 115.039% and 106.712% and 94.0587% | Relative infectivity (%) ([11]; Temsavir 5 nM): 2.81% and 1.74% and 3.98% | Relative infectivity (%) ([11]; Temsavir 10 nM): 1.05% and 1.23% and 1.34% | Relative infectivity (%) ([11]; Temsavir 50 nM): 1.04% and 1.28% and 3.8% | Relative infectivity (%) ([11]; Temsavir 100 nM): 0.97% and 2.23% and 1.32% | Relative infectivity (%) ([12]; Temsavir 5 nM): 1.06% and 2.62% and 1.23% | Relative infectivity (%) ([12]; Temsavir 10 nM): 1.04% and 2.29% and 1.51% | Relative infectivity (%) ([12]; Temsavir 50 nM): 0.98% and 2.22% and 1.35% | Relative infectivity (%) ([12]; Temsavir 100 nM): 1.01% and 5.2% and 2.05% | Relative infectivity (%) ([13]; Temsavir 5 nM): 61.12% and 58.84% and 77.63% | Relative infectivity (%) ([13]; Temsavir 100 nM): 18.08% and 29.17% and 19.26% | sCD4 binding (+TMR) - Fold over DMSO [14]: 0.2273 and 0.2477 and 0.2229 | sCD4 binding (+TMR) - Fold over DMSO [15]: 0.2258 and 0.2038 and 0.2793 | sCD4 binding (+TMR) - Fold over DMSO [16]: 1.015 and 0.9829 and 1.003 | sCD4 binding (+TMR) - Fold over DMSO [17]: 1.042 and 0.933 and 0.9789 | sCD4 binding (+TMR) - Fold over DMSO [18]: 1.043 and 1.054 and 0.9268 | sCD4 binding (+TMR) - Fold over DMSO [19]: 0.4934 and 0.673 and 0.6222 | sCD4 binding (+TMR) - Fold over DMSO [20]: 1.199 and 1.141 and 1.081 | IC50 ([21]; Fig 2a, Env strains with Y61, ref Pancera et al.): 0.0004 µM | IC50 ([21]; individual strains with H375): > 20 µM and 18.1 µM and 4.04 µM and 8.52 µM and 12.7 µM and 4.77 µM and 2.81 µM and 13 µM and 4.13 µM and 5.13 µM | IC50 ([21]; individual strains with S375): 0.012 µM | IC50 ([21]; individual strains, CRF01_AE): > 20 µM and 18.1 µM and 4.04 µM and 8.52 µM and 12.7 µM and 4.77 µM and 2.81 µM and 13 µM and 4.13 µM and 5.13 µM | active against % of a panel of 208 HIV-1 Envs ([21]; whole panel, different clades): 91% | IC50 (CRF01_AE strains): > 5.8 µM | fold reduction in temsavir activity (HIV-1 Env with Ile475): ~ 90 fold

Reference: paper PMC10593844, “Structure-function analyses reveal key molecular determinants of HIV-1 CRF01_AE resistance to the entry inhibitor temsavir” (Nature Communications, 2023)
